Data taken from EPA's ToxValDB 9.5.
Converted amounts (≈) assume the structure as drawn.

Tests used:
Daphnia magna = conditions: chronic/long-term; duration: 21 days; reproduction
Colinus virginianus = conditions: for LD50: acute, oral, mortality
Rattus norvegicus = conditions: for LD50: mortality
Pimephales promelas = conditions: chronic/long-term; duration: 255 days; growth
Bovidae = conditions: for LEL: no effects
Canidae = conditions: for NOAEL: oral
Sus scrofa = conditions: short-term, oral, diet, Not specified; for LEL: duration: 28 days, no effects
Oncorhynchus mykiss = conditions: acute; duration: 96 hours; mortality
Mus musculus = conditions: acute; oral; gavage; M; ICR; clinical signs
Bibionidae = conditions: chronic/long-term; other
Pontoscolex corethrurus = conditions: acute; duration: 14 days; body weight
Ovis sp. = conditions: subchronic; duration: 8 weeks; oral; diet; no effects
Homo sapiens = conditions: clinical, oral
[1] = reproduction developmental, reproduction
[2] = chronic, duration: 1 years, Dog Other, clinical chemistry

Compound: O=C(O)CNCP(=O)(O)O [Glyphosate]
- NOEC (Danio rerio; short-term, duration: 168 hours, growth): 1 mg/L
- NOEC (Daphnia magna): 12.5 mg/L
- LD50 (Colinus virginianus): 4330 mg/kg-day
- NOEL (Colinus virginianus; reproduction developmental): 96.3 mg/kg-day
- LD50 (Rattus norvegicus; acute, oral): > 2000 mg/kg-day
- NOEC (Pimephales promelas): 25.7 mg/L
- NOEL (Anas platyrhynchos; reproductive): 125 mg/kg-day
- NOAEL (Oryctolagus sp.; chronic): 50 mg/kg-day

Compound: ClC1=C(Cl)[C@]2(Cl)[C@@H]3[C@@H](Cl)[C@H]4O[C@H]4[C@@H]3C1(Cl)C2(Cl)Cl [Heptachlor epoxide B]
- NOAEL (Bovidae; subchronic, oral, diet, F): 1.5 mg/kg-day
- NOAEL (Canidae; chronic, duration: 2 years, diet, M/F, Beagle, clinical chemistry): 0.025 mg/kg-day
- NOAEL (Gallus gallus; chronic, duration: 25 weeks, oral, diet, M/F, development): 0.002 mg/kg-day

Compound: CC(C)C [Isobutane]
- NOAEC [1]: 7.12 mg/m3

Compound: CC(O)C(=O)O (configuration not stated) [Lactic acid]
- LEL (Gallus gallus; subchronic, duration: 42 days, oral, diet, Chicken, no effects): 30000 mg/kg-day

Compound: O=C(O)CC(O)C(=O)O (configuration not stated) [Malic acid]
- LEL (Sus scrofa; M/F): 12000 mg/kg-day
- LEL (Bovidae; subchronic, oral, diet): 23000 mg/kg-day
- LEL (Canidae; chronic, duration: 104 weeks, M/F, Beagle, no effects): 50000 mg/kg-day
- LEL (Gallus gallus; short-term, duration: 21 days, oral, diet, food consumption): 20000 mg/kg-day

Compound: CBr [Methyl bromide]
- LD50 (Colinus virginianus): 73 mg/kg
- LC50 (Oncorhynchus mykiss): 3.9 µg/mL
- LD50 (Rattus norvegicus; acute, oral): 104 mg/kg
- NOAEL (Rattus norvegicus; [1]): 90 mg/kg-day
- NOAEL (Canidae; chronic, duration: 1 years, Dog Other): 0.27 mg/kg-day
- NOAEL (Canidae; [2]): 0.13 mg/kg-day

Compound: NC(=O)c1ccc[n+]([C@@H]2O[C@H](CO)[C@@H](O)[C@H]2O)c1.[Cl-] [Nicotinamide riboside chloride]
- NOAEL (Rattus norvegicus; developmental, duration: 15 days, oral, gavage, F, Sprague-Dawley, development): 325 mg/kg-day
- NOAEL (Rattus norvegicus; subchronic, duration: 90 days, oral, gavage, M/F, Sprague-Dawley, body weight): 300 mg/kg-day
- NOAEL (Canidae; short-term, duration: 28 days, gavage, M/F, Beagle, clinical chemistry): 300 mg/kg-day

Compound: CC1=C[C@H]2O[C@@H]3[C@H](O)[C@@H](O)[C@](C)([C@@]2(CO)[C@H](O)C1=O)[C@]31CO1 [Nivalenol]
- LOAEL (Gallus gallus; repeat dose other, organ weight): 0.36 mg/kg-day

Compound: C=C(/C=C\C[C@@H](O)[C@@H](O)[C@H](O)C/C=C/C=C\[C@@H](O)C[C@@H]1O[C@H](C[C@@H](O)[C@H](O)C[C@H]2O[C@H]([C@H](O)[C@H](O)CC[C@H](O)/C=C/[C@H](C)[C@@H](O)C[C@]3(O)O[C@H]([C@@H](O)[C@@H](O)CCCCCCC[C@@]45C[C@@H](C)C[C@@](C)(O4)[C@@H](CCCCCCC[C@@H](O)C[C@H](O)[C@@H](O)[C@@H](O)[C@H]4O[C@H](C[C@H](O)[C@H](O)/C(C)=C/[C@H](O)CC[C@H](O)C(=O)N/C=C/C(=O)NCCCO)[C@H](O)[C@@H](O)[C@@H]4O)O5)C[C@@H](O)[C@H]3O)C[C@@H](O)[C@@H]2O)[C@@H](O)[C@H](O)[C@H]1O)CC[C@H](O)[C@@H](O)[C@H](O)[C@H](C)C[C@H]1O[C@H](/C=C\[C@@H](O)[C@H](O)C[C@@H]2C[C@@H]3C[C@H](O2)[C@@H](CC[C@H]2O[C@H](CN)C[C@H]2O)O3)[C@@H](O)[C@H](O)[C@H]1O [Ostreocin-D]
- LOAEL (Mus musculus): 0.2 mg/kg-day

Compound: CCN(CC)c1nc(C)cc(OP(=S)(OC)OC)n1 [Pirimiphos-methyl]
- LC50 (Oncorhynchus mykiss): 0.2 µg/mL (≈ 0.655 µM)
- NOAEL (Rattus norvegicus; acute, clinical signs): 15 mg/kg-day
- NOAEL (Rattus norvegicus; chronic, duration: 2 years, clinical signs): 0.4 mg/kg-day
- NOAEL (Rattus norvegicus; subchronic, duration: 13 weeks, clinical signs): 2.1 mg/kg-day

Compound: CC1=NNC(=O)N(/N=C/c2cccnc2)C1 [Pymetrozine]
- NOAEL (Canidae; [2]): 0.57 mg/kg-day
- NOAEL (Canidae; subchronic, duration: 90 days, diet, Beagle, organ weight): 3 mg/kg-day
- NOAEL (Oryctolagus sp.; reproduction developmental, histopathology: nonneoplastic): 10 mg/kg-day

Compound: CCS(=O)(=O)c1cccnc1S(=O)(=O)NC(=O)Nc1nc(OC)cc(OC)n1 [Rimsulfuron]
- LD50 (Rattus norvegicus; acute, oral): > 5000 mg/kg-day
- NOAEL (Rattus norvegicus; chronic, duration: 2 years, oral, body weight): 11.8 mg/kg-day
- NOAEL (Rattus norvegicus; reproduction developmental, body weight): 165 mg/kg-day
- LD50 (Anas platyrhynchos; acute, oral, unspecified, mortality): > 2000 mg/kg-day
- NOEC (Anas platyrhynchos; reproductive, oral, feed): 117 mg/kg-day
- NOAEL (Canidae; subchronic, duration: 90 days, Dog Other, body weight): 9.63 mg/kg-day
- NOAEL (Oryctolagus sp.; reproduction developmental, mortality): 170 mg/kg-day

Compound: Cl.N/C(=N\N=C\c1ccc(Cl)cc1)N/N=C/c1ccc(Cl)cc1 [Robenidine hydrochloride]
- LEL (Sus scrofa): 120 mg/kg-day
- LC50 (Danio rerio; acute, mortality): 0.036 µg/mL
- NOEC (Bibionidae): 50 mg/kg
- LC50 (Pontoscolex corethrurus): > 1000 mg/kg
- NOEC (repeat dose other, other): > 1.8 mg/kg-day
- LEL (Bovidae; short-term, duration: 28 days): 60 mg/kg-day
- NOEL (Canidae; subchronic, duration: 90 days, Dog Other, organ weight): 7.5 mg/kg-day
- NOAEL (Oryctolagus sp.; reproduction developmental, duration: 84 days, oral, diet, New Zealand, reproduction): 11 mg/kg-day
- LEL (Oryctolagus sp.; subchronic, duration: 48 days, oral, diet, no effects): 500 mg/kg-day
- LEL (Gallus gallus; subchronic, duration: 9 weeks, oral, diet, M/F, no effects): 225 mg/kg-day
- LEL (Gallus gallus; subchronic, duration: 35 days, oral, diet, M/F, Chicken, no effects): 82.5 mg/kg-day

Compound: COc1cc2c(c3oc4cccc(O)c4c(=O)c13)[C@@H]1C=CO[C@@H]1O2 [Sterigmatocystin]
- LEL (Ovis sp.): 0.3 mg/kg-day

Compound: CCCCCc1cc(O)c2c(c1)OC(C)(C)[C@@H]1CCC(C)=C[C@@H]21 [Tetrahydrocannabinol]
- LEL (Homo sapiens; duration: 12 weeks, neurology): 2.5 mg/day
- LOAEL (mg/person-day) (Homo sapiens; capsule, other): 2.5

Compound: CC1=C[C@H]2O[C@@H]3[C@H](O)C[C@](C)([C@@]2(CO)[C@H](O)C1=O)[C@@]31CO1 [Vomitoxin]
- LOEL (Sus scrofa; duration: 21 days, food consumption): 0.35 mg/kg-day
